This note sets out measurements from US11311475B2, “Skin care compositions containing peptide compound and aphanothece sacrum exopolysaccharide extract” (The Procter & Gamble Company, priority 2019, dated 2022).

A short description of this data set: Franz diffusion cell skin penetration assay. In kind it is in vitro ADME, human. The note with it: for pal-KT Skin Penetration: Surface Residual / pal-KT Skin Penetration: Dermis / pal-KT Skin Penetration: Epidermis / pal-KT Skin Penetration: Total Penetration / pal-KT Skin Penetration: Receptor: pal-KT 5 ppm; for pal-KT Skin Penetration: Surface Residual: 14C-spiked, 24 h after topical dose on human skin; for pal-KT Skin Penetration: Total Penetration: epidermis+dermis+receptor; for pal-KT Skin Penetration: Receptor: receptor solution (transdermal). The procedure:
The method is described. […] (40 ppm) is assessed using the Franz diffusion cell assay (4, T. J. Franz, J. Invest. Dermatol. 64: 190-195, 1975; T. J. Franz, et al., Skin Pharmacol. Physiol. 22: 276-286, 2009). The peptides are formulated in a skin care silicone-in-water (SWF) formulation with or without 10 wt % SACRAN. The formulations are spiked with ^14C-pal-KT or ^3H-PKEK. Twenty-four hours after topically dosed on human skin, residual product is removed from the skin surface, the epidermal and dermal layers were separated, and receptor solutions (transdermal) are collected.

The mark [1] stands for this setting: SWF + 10 wt % SACRAN versus SWF, 24 h, human skin.
Where [2] appears, read: SWF formulation without SACRAN (control), 24 h.

Turning to `CCCCCCCCCCCCCCCC(=O)N[C@@H](CCCCN)C(=O)N[C@H](C(=O)O)[C@@H](C)O` [pal-KT, palmitoyl-lysine-threonine], under setting [1], the “amount recovered from the surface of the skin with SACRAN versus without (in words)” value was “statistically significant lower amount” and the “effect of addition of SACRAN on skin penetration (in words)” value was “increased”. The “pal-KT Skin Penetration: Surface Residual” value (SWF + 10 wt % SACRAN) is on record as 173.2 ± 18.1 ng/cm^2. Under “SWF + 10 wt % SACRAN, 24 h”, the “pal-KT Skin Penetration: Dermis” value worked out at 14.8 ± 1.65 ng/cm^2, the “pal-KT Skin Penetration: Epidermis” value was 128.3 ± 17.1 ng/cm^2, the “pal-KT Skin Penetration: Total Penetration” value is 143.3 ± 18.1 ng/cm^2 and the “pal-KT Skin Penetration: Receptor” value was 0.09 ± 0.07 ng/cm^2. Under “SWF + SACRAN versus SWF, single topical application”, the “increase in skin penetration by addition of SACRAN to SWF” value is given as 60%. For the same molecule, the “pal-KT Skin Penetration: Surface Residual” value (SWF formulation without SACRAN (control)) was determined as 228.5 ± 10.2 ng/cm^2. Besides, under setting [2], the “pal-KT Skin Penetration: Dermis” value is listed as 14.3 ± 1.4 ng/cm^2, the “pal-KT Skin Penetration: Epidermis” value came to 72.5 ± 9.5 ng/cm^2, the “pal-KT Skin Penetration: Total Penetration” value turned out to be 88.0 ± 10.2 ng/cm^2 and the “pal-KT Skin Penetration: Receptor” value amounted to 0.14 ± 0.14 ng/cm^2.
